pIC50: −log10 of the molar value.
System: T1, estrogen receptors (ERs; subtype not resolved)
T1 construct: endogenous receptors in whole endometriotic stromal cells (ESCs)
Assay: whole-cell competitive radioligand binding against [3H]-E2
Format: cell-based, Homo sapiens
Description: whole-cell competitive radioligand binding against [3H]-E2 on estrogen receptors (ERs; subtype not resolved) | puerarin also competed against the specific binding of [^3H]-E2 to ERs, and the IC50 of puerarin was determined

For `O=c1c(-c2ccc(O)cc2)coc2c([C@@H]3O[C@H](CO)[C@@H](O)[C@H](O)[C@H]3O)c(O)ccc12` [puerarin], the pIC50 was 6.06.

Source: publication PMC3446905, “Puerarin Suppresses Proliferation of Endometriotic Stromal Cells Partly via the MAPK Signaling Pathway Induced by 17ß-estradiol-BSA” (PLoS ONE, 2012)
